Consider two molecules from US5385921A, “Pharmaceutical formulations” (Aktiebolaget Astra, priority 1990, dated 1995).

Assay [1] has as its system CA1/CA2 hippocampal neurones. Nature of the assay: Neuroprotection studies: damage to CA1/CA2 hippocampal neurones in gerbils after carotid artery occlusion. It is filed as in vivo, gerbil. How it is done: (§1) All drugs were dissolved in isotonic saline. Weights refer to the free base.
Ischaemia was induced in gerbils, by occlusion of the carotid arteries following the accepted general procedure as described in, for example, EP 230 370 and R. Gill, A. C. Foster and G. N. Woodruff, J. Neuroscience, 1987, 7, 3343-3349.
Ischaemia was induced in the animals by 5 minute occlusion of both carotid arteries. Body temperature was maintained at 37° C. throughout. Restoration of blood flow after occlusion was checked visually and the animals were allowed to survive for 4 days. The extent of neuronal degeneration in the hippocampus was then assessed. The test compounds were adminstered (i.p.) as a single dose 60 minutes following occlusion. No administration was made prior to the occlusion.

The test system of the next assay is locomotor activity. Nature of the assay: Sedation studies: suppression of locomotor activity in mice. It is filed as in vivo, male TO mice. The note with it: Mus musculus, recording starts 20 min after administration, 30 min period, weights refer to the free base, read-out: Sedation ED50 (dose required to reduce locomotor activity by 50%). Here is the method: (§2) Animals used were male Wistar rats (140-170 g) and male TO mice (18-30 g).
as §1
The test drug was administered to mice and starting 20 min later locomotor activity was recorded for a 30 min period. Activity was monitored using an infra-red light beam interruption system in cages measuring 40 cm×40 cm. Data are expressed as the dose required to reduce locomotor activity by 50% (ED50).

In assay [2] the test system is Pentylenetetrazol (PTZ) seizures. Nature of the assay: Pentylenetetrazol (PTZ) seizures: seizure threshold in rats. Type of assay: in vivo, male Wistar rats. The note with it: Rattus norvegicus, 0.25 h, drug 15 min before PTZ infusion into tail vein, weights refer to the free base, read-out: PTZ seizures TI50 (dose required to increase seizure threshold by 50%). Here is the method:
as §2, §1
Seizure threshold was assessed in rats by measurement of the dose of PTZ required to elicit a seizure when infused through a tail vein. PTZ (10 mg/ml) was infused into the tail vein at a rate of […] and the time to the first clonic convulsion measured. Seizure threshold was calculated as described by Green & Murray, J. Pharm. Pharmacol. 1989, 41: 879-880. Drugs were administered 15 min before the PTZ. Data are expressed as the dose required to increase seizure threshold by 50% (TI50).

Assay [3] relates to N-methyl-D-aspartate (NMDA) seizures. The assay is described as follows: N-methyl-D-aspartate (NMDA) seizures: tonic convulsions in mice. Type of assay: in vivo, male TO mice. The note with it: Mus musculus, drug 15 min before NMDA 300 mg/kg i.p., weights refer to the free base, read-out: NMDA seizures ED50 (dose required to decrease the incidence of tonic convulsions by 50%). How it is done:
as §2, §1
Drugs were adminstered 15 min before the NMDA, and data are expressed as the dose required to decrease the incidence of tonic convulsions by 50% (ED50).

As to `Cc1ncsc1C(O)CCl.Cl` (centres unmarked) [5-(2-chloro-1-hydroxyethyl)-4-methylthiazole hydrochloride salt], in assay [1] (100 mg/kg i.p. single dose 60 minutes after induction of ischaemia, n=8, assessed after 4 days, untreated (None) 92 ±7), the “% Damage to CA1/CA2 Hippocampal Neurones” value came to 64 ±8%. The “reduction of damage to the CA1/CA2 hippocampal neurones (in words)” value in assay [1] (i.p., single dose 60 minutes following occlusion) is “effective in reducing the damage to the CA1/CA2 hippocampal neurones”.
Consider `Cc1ncsc1C(O)CCl` (centres unmarked) [5-(2-Chloro-1-hydroxyethyl)-4-methylthiazole ethandisulphonate], for which the results for the ED50 (in the assay on locomotor activity; in assay [2]; in assay [3]) were 52 mg/kg, 34 mg/kg and 40 mg/kg, respectively.
